Laboratory results published in ChEMBL document CHEMBL5154799, “Discovery of a Novel Stilbene Derivative as a Microtubule Targeting Agent Capable of Inducing Cell Ferroptosis” (J Med Chem, 2022).
pIC50: −log10 of the molar value. The source made the active and inactive calls. The rule behind the calls is not given here.

How the values were obtained:
[1] = Toxicity in human A549 cells xenografted in athymic nude BALB/c nude mouse assessed as morphological changes in spleen at 10 mg/kg, ip measured after 30 days by H and E staining based histological analysis; format: organism-based; settings: in vivo, 720 h, time 30 day
[2] = Resistance index, ratio of IC50 for antiproliferative activity against human vincristine-resistant HCT-8/VCR cells to IC50 for antiproliferative activity against HCT-8 cells; format: functional
A549 [3] = experiment: Induction of ferroptosis in human A549 cells assessed as accumulation of intracellular ROS incubated for 24 hrs by DCFH-DA staining based fluorescence microscopy; format: functional, cell-based; settings: dose 5-10 nM, DDE = dose-dependent effect
A549 [4] = experiment: Antiproliferative activity against human A549 cells assessed as cell viability incubated for 48 hrs by MTT assay; format: functional, cell-based; settings: A549, 48 h
A2780 [5] = experiment: Antiproliferative activity against human A2780 cells assessed as cell viability incubated for 48 hrs by MTT assay; format: functional, cell-based; settings: A2780, 48 h
A549 [6] = experiment: Antiproliferative activity against human A549 cells assessed as inhibition of cell proliferation incubated for 2 hrs by CCK-8 assay; format: functional, cell-based; settings: DDE = dose-dependent effect
HeLa = experiment: Antiproliferative activity against human HeLa cells assessed as inhibition of cell proliferation incubated for 2 hrs by CCK-8 assay; format: functional, cell-based; settings: DDE = dose-dependent effect
A2780 [7] = experiment: Antiproliferative activity against human A2780 cells assessed as inhibition of cell proliferation incubated for 2 hrs by CCK-8 assay; format: functional, cell-based; settings: DDE = dose-dependent effect
PC-3 = experiment: Antiproliferative activity against human PC-3 cells assessed as inhibition of cell proliferation incubated for 2 hrs by CCK-8 assay; format: functional, cell-based; settings: DDE = dose-dependent effect
A549 [8] = experiment: Cytotoxicity against human A549 cells assessed as reduction in cell viability; format: functional, cell-based
[9] = Cytotoxicity against human L02 cells assessed as reduction in cell viability; format: toxicity, cell-based
[10] = Selectivity ratio of IC50 for cytotoxicity against human L02 cells assessed as reduction in cell viability to IC50 for cytotoxicity against human A549 cells assessed as reduction in cell viability; format: toxicity, cell-based; settings: L02 cells versus A549 cells
[11] = Selectivity ratio of IC50 for cytotoxicity against HLF cells assessed as reduction in cell viability to IC50 for cytotoxicity against human A549 cells assessed as reduction in cell viability; format: toxicity, cell-based; settings: HLF cells versus A549 cells
[12] = Selectivity ratio of IC50 for cytotoxicity against human MCF-10A cells assessed as reduction in cell viability to IC50 for cytotoxicity against human A549 cells assessed as reduction in cell viability; format: toxicity, cell-based; settings: MCF-10A cells versus A549 cells
Tubulin (Homo sapiens) [13] = target: T1, Tubulin (Homo sapiens) (UniProt P68371+Q9H4B7+P0DPH7+P68366+Q13509+Q71U36+P04350+Q3ZCM7+P07437+P68363+Q9BQE3+Q6PEY2+Q13885+Q9BVA1+Q9BUF5); experiment: Inhibition of [3H]colchicine binding to tubulin (unknown origin) at 0.3725 uM by competitive binding assay relative to control; format: protein-complex assay
Tubulin (Homo sapiens) [14] = target: T1, Tubulin (Homo sapiens); experiment: Inhibition of [3H]colchicine binding to tubulin (unknown origin) at 1.25 uM by competitive binding assay relative to control; format: protein-complex assay
Tubulin (Homo sapiens) [15] = target: T1, Tubulin (Homo sapiens); experiment: Inhibition of [3H]colchicine binding to tubulin (unknown origin) at 2.5 uM by competitive binding assay relative to control; format: protein-complex assay
Tubulin (Homo sapiens) [16] = target: T1, Tubulin (Homo sapiens); experiment: Inhibition of [3H]colchicine binding to tubulin (unknown origin) at 10 uM by competitive binding assay relative to control; format: protein-complex assay
Tubulin = experiment: Inhibition of [3H]colchicine binding to tubulin (unknown origin) by competitive binding assay; format: protein-complex assay, Homo sapiens
HUVEC = experiment: Vascular disruptive effect in HUVEC cells assessed as reduction in tube formation at 10 nM measured after 6 to 9 hrs; format: functional, cell-based; settings: Homo sapiens, time 6-9 hrs
A549 [17] = experiment: Cell cycle arrest in human A549 cells assessed as increase in accumulation in G2/M phase at 5 to 20 nM by PI staining based flow cytometry analysis; format: functional; settings: dose 5-20 nM, time 24-48 hrs, TDE = time-dependent effect
A549 [18] = experiment: Cell cycle arrest in human A549 cells assessed as increase in accumulation in G2/M phase incubated for 24 to 48 hrs by PI staining based flow cytometry analysis; format: functional; settings: dose 5-20 nM, time 24-48 hrs, DDE = dose-dependent effect
A549 [19] = experiment: Induction of ferroptosis in human A549 cells assessed as accumulation of superoxide anions incubated for 24 hrs by DCFH-DA staining based fluorescence microscopy; format: functional, cell-based; settings: dose 5-10 nM, DDE = dose-dependent effect
A549 [20] = experiment: Induction of ferroptosis in human A549 cells assessed as rupture of plasma membrane incubated for 24 hrs by CCK-8 assay; format: functional, cell-based
A549 [21] = experiment: Induction of ferroptosis in human A549 cells assessed as induction of lipid […] accumulation at 5 to 20 nM incubated for 24 hrs by C11-BODIPY-581/591 staining based flow cytometry analysis; format: functional, cell-based; settings: dose 5-20 nM
[22] = Acute oral toxicity in rat assessed as survival at 17.5 to 175 mg/kg measured over 8 hours daily for 14 days; format: organism-based; settings: in vivo, 336 h, dose 17.5-175 mg/kg, time 14 day
[23] = Acute oral toxicity in rat assessed as death at 550 mg/kg measured over 8 hours daily for 14 days; format: organism-based; settings: in vivo, 336 h, time 14 day
[24] = Half life in ICR mouse at 10 mg/kg, po single administration measured for 24 hrs post treatment by LC-MS/MS analysis; format: ADME, organism-based; settings: in vivo
[25] = Cmax in ICR mouse at 10 mg/kg, po single administration measured for 24 hrs post treatment by LC-MS/MS analysis; format: ADME, organism-based; parameters: time 24 hrs, dose 10 mg/kg, route po; settings: in vivo
[26] = AUC (0 to infinity) in ICR mouse at 10 mg/kg, po single administration measured for 24 hrs post treatment by LC-MS/MS analysis; format: ADME, organism-based; parameters: time 24 hrs, dose 10 mg/kg, route po; settings: in vivo
[27] = MRT in ICR mouse at 10 mg/kg, po single administration measured for 24 hrs post treatment by LC-MS/MS analysis; format: ADME, organism-based; settings: in vivo
[28] = Half life in ICR mouse at 1 mg/kg, iv single administration measured for 24 hrs post treatment by LC-MS/MS analysis; format: ADME, organism-based; settings: in vivo
[29] = Oral bioavailability in ICR mouse at 10 mg/kg single administration measured for 24 hrs post treatment by LC-MS/MS analysis; format: ADME, organism-based; settings: in vivo
[30] = Cmax in ICR mouse at 1 mg/kg, iv single administration measured for 24 hrs post treatment by LC-MS/MS analysis; format: ADME, organism-based; parameters: time 24 hrs, dose 1 mg/kg, route iv; settings: in vivo
[31] = AUC (0 to infinity) in ICR mouse at 1 mg/kg, iv single administration measured for 24 hrs post treatment by LC-MS/MS analysis; format: ADME, organism-based; parameters: time 24 hrs, dose 1 mg/kg, route iv; settings: in vivo
A549 [32] = experiment: In vivo antitumor activity against human A549 cells xenografted in athymic nude BALB/c mouse assessed as tumor volume at 10 mg/kg measured after 30 days (reference value: 1503.3 mm^3); format: functional; settings: time 30 day
[33] = Toxicity in human A549 cells xenografted in athymic nude BALB/c nude mouse assessed as morphological changes in liver at 10 mg/kg, ip measured after 30 days by H and E staining based histological analysis; format: organism-based; settings: in vivo, 720 h, time 30 day
Tubulin (Homo sapiens) [34] = target: T1, Tubulin (Homo sapiens); experiment: Induction of microtubule disruption in human A549 cells assessed as abnormal uncondensed cytoplasm at 5 to 20 uM incubated for 12 hrs by immunofluorescence based laser scanning confocal microscopic analysis; format: cell-based; settings: dose 5-20 µM

C=C(c1cc(OC)c(OC)c(OC)c1)c1ccc(OC)c(O)c1NC(=O)CO
Activity [1]: Non-Toxic | Ratio IC50 [2]: 1.75 | Activity (A549 [3]): Dde | pIC50 (A549 [4]): 8.00 | pIC50 (A2780 [5]): 7.70 | Activity (A549 [6]): Dde | Activity (HeLa): Dde | Activity (A2780 [7]): Dde | Activity (PC-3): Dde | pIC50 (A549 [8]): 8.00 | pIC50 [9]: 5.84 | selectivity ratio [10]: 145 | selectivity ratio [11]: 135 | selectivity ratio [12]: 54 | inhibition (Tubulin (Homo sapiens) [13]): 4.07% | inhibition (Tubulin (Homo sapiens) [14]): 48.4% | inhibition (Tubulin (Homo sapiens) [15]): 64.8% | inhibition (Tubulin (Homo sapiens) [16]): 85% | pIC50 (Tubulin): 5.95 | Activity (HUVEC): Active | Activity (A549 [17]): Tde | Activity (A549 [18]): Dde | Activity (A549 [19]): Dde | Activity (A549 [20]): Active | Activity (A549 [21]): Active | Activity [22]: Non-Toxic | Activity [23]: Toxic | half-life [24]: 2.12 h | Cmax [25]: 0.776 µg/mL | AUC [26]: 2463.76 h/ng/mL | MRT [27]: 2.57 h | half-life [28]: 0.62 h | bioavailability [29]: 69.5% | Cmax [30]: 0.871 µg/mL | AUC [31]: 353.02 h/ng/mL | Activity (A549 [32]): 321.1 mm3 | Activity [33]: Non-Toxic | Activity (Tubulin (Homo sapiens) [34]): Active
